Assay results published in the NIST ThermoML archive (doi:10.1021/je700521t).

Experiment: xn = mol fraction of the nth substance listed
Conditions: 101 kPa, Liquid

CCCCCCCC[n+]1ccn(C)c1.F[B-](F)(F)F [1-methyl-3-octylimidazolium tetrafluoroborate] + CCO
Conditions | mass density [kg/m3] | viscosity [mPa·s]
283.15 K, x2 = 0.081 | 1122.9 | 718.47
283.15 K, x2 = 0.161 | 1118 | 492.73
283.15 K, x2 = 0.315 | 1098.7 | 167.49
283.15 K, x2 = 0.511 | 1064.7 | 51.57
283.15 K, x2 = 0.612 | 1039.7 | 27.12
283.15 K, x2 = 0.753 | 991.3 | 12.45
288.15 K, x2 = 0.081 | 1119.4 | 507.18
288.15 K, x2 = 0.161 | 1114.5 | 354.89
288.15 K, x2 = 0.315 | 1095.2 | 127.69
288.15 K, x2 = 0.511 | 1061.3 | 41.43
288.15 K, x2 = 0.612 | 1036 | 22.05
288.15 K, x2 = 0.753 | 987.5 | 10.36
293.15 K, x2 = 0.081 | 1115.9 | 366.59
293.15 K, x2 = 0.161 | 1111 | 261.54
293.15 K, x2 = 0.315 | 1091.8 | 98.92
293.15 K, x2 = 0.511 | 1057.8 | 35.28
293.15 K, x2 = 0.612 | 1032.2 | 18.24
293.15 K, x2 = 0.753 | 983.6 | 8.79
298.15 K, x2 = 0.081 | 1112.4 | 268.93
298.15 K, x2 = 0.161 | 1107.5 | 194.74
298.15 K, x2 = 0.315 | 1088.3 | 78.63
298.15 K, x2 = 0.511 | 1054.2 | 28.87
298.15 K, x2 = 0.612 | 1028.4 | 15.35
298.15 K, x2 = 0.753 | 979.7 | 7.53
303.15 K, x2 = 0.081 | 1108.9 | 203.35
303.15 K, x2 = 0.161 | 1104 | 150.36
303.15 K, x2 = 0.315 | 1084.8 | 63.33
303.15 K, x2 = 0.511 | 1050.6 | 23.94
303.15 K, x2 = 0.612 | 1024.7 | 12.98
303.15 K, x2 = 0.753 | 975.7 | 6.51
308.15 K, x2 = 0.081 | 1105.5 | 156.29
308.15 K, x2 = 0.161 | 1100.7 | 117.36
308.15 K, x2 = 0.315 | 1081.3 | 51.59
308.15 K, x2 = 0.511 | 1046.9 | 20.13
308.15 K, x2 = 0.612 | 1020.9 | 11.16
308.15 K, x2 = 0.753 | 971.8 | 5.66
313.15 K, x2 = 0.081 | 1102.2 | 123.27
313.15 K, x2 = 0.161 | 1097.3 | 93.2
313.15 K, x2 = 0.315 | 1077.8 | 42.48
313.15 K, x2 = 0.511 | 1043.2 | 17.09
313.15 K, x2 = 0.612 | 1017.2 | 9.61
313.15 K, x2 = 0.753 | 968 | 4.96
318.15 K, x2 = 0.081 | 1098.8 | 97.69
318.15 K, x2 = 0.161 | 1093.9 | 75.37
318.15 K, x2 = 0.315 | 1074.3 | 35.84
318.15 K, x2 = 0.511 | 1039.3 | 14.67
318.15 K, x2 = 0.612 | 1013.4 | 8.39
318.15 K, x2 = 0.753 | 964.1 | 4.38
323.15 K, x2 = 0.081 | 1095.4 | 79.43
323.15 K, x2 = 0.161 | 1090.5 | 61.66
323.15 K, x2 = 0.315 | 1070.9 | 30.38
323.15 K, x2 = 0.511 | 1034.9 | 12.72
323.15 K, x2 = 0.612 | 1009.7 | 7.39
323.15 K, x2 = 0.753 | 960.2 | 3.89
328.15 K, x2 = 0.081 | 1092.1 | 65.03
328.15 K, x2 = 0.161 | 1087.1 | 51.12
328.15 K, x2 = 0.315 | 1067.4 | 26.04
328.15 K, x2 = 0.511 | 1030.3 | 11.1
328.15 K, x2 = 0.612 | 1005.9 | 6.55
328.15 K, x2 = 0.753 | 956.4 | 3.5
333.15 K, x2 = 0.081 | 1088.7 | 54.15
333.15 K, x2 = 0.161 | 1083.7 | 42.99
333.15 K, x2 = 0.315 | 1064 | 22.54
333.15 K, x2 = 0.511 | 1028.7 | 9.77
333.15 K, x2 = 0.612 | 1002.2 | 5.8
333.15 K, x2 = 0.753 | 952.5 | 3.17
338.15 K, x2 = 0.081 | 1085.4 | 45.46
338.15 K, x2 = 0.161 | 1080.3 | 36.47
338.15 K, x2 = 0.315 | 1060.5 | 19.73
338.15 K, x2 = 0.511 | 1025.2 | 8.65
338.15 K, x2 = 0.612 | 998.5 | 5.18
338.15 K, x2 = 0.753 | 948.6 | 2.89
343.15 K, x2 = 0.081 | 1082.1 | 39.03
343.15 K, x2 = 0.161 | 1077 | 31.51
343.15 K, x2 = 0.315 | 1057.1 | 17.42
343.15 K, x2 = 0.511 | 1021.3 | 7.74
343.15 K, x2 = 0.612 | 994.7 | 4.7
343.15 K, x2 = 0.753 | 944.7 | 2.65
